Test results reported in BindingDB's records for doi:10.1016/S0960-894X(00)80622-8 (1992).

assay: Compound was evaluated for inhibition against Phospholipase A2 of Croatalus adamanteus

IC50 [µM] | Structure (SMILES)
> 1000 | CON(/C=C\C(=O)c1ccc(F)cc1)Cc1ccccc1 [(Z)-3-(Benzyl-methoxy-amino)-1-(4-fluoro-phenyl)-propenone]
> 1000 | CC(=O)ON(C=CC(=O)c1ccc(F)cc1)Cc1ccccc1 [1-(4-fluorophenyl)-3-benzyl-3-acetyloxyamino-propenone]
> 1000 | O=C(/C=C\N(O)C1CCCCC1)c1ccc(F)cc1
